Measurements reported in patent US20240174693A1, “SOMATOSTATIN RECEPTOR SUBTYPE 4 (SSTR4) AGONISTS AND THEIR APPLICATIONS” (Humanwell Pharmaceutical US, priority 2022, published 2024).

Tests used:
Hepatocyte stability = conditions: rat, hepatocytes
Protocol: Vials with hepatocytes were removed from a liquid nitrogen storage unit and immediately placed in a 37±1° C. shaking water bath for 2 min±15 sec. The hepatocytes were poured into 50 mL of hepatocytes thawing medium, mixed gently, and centrifuged at 500 rpm for 3 minutes. After centrifugation, the supernatant was carefully aspirated without disturbing the pellet. 10× the volume of pre-warmed KHB buffer (Krebs-Henseleit buffer, Sigma Cat #K3753-10X1L) with 5.6 g/L HEPES was used to resuspend the cell pellet. The pellet mixture was centrifuged at 500 rpm for 3 minutes, aspirated, and the supernatant discarded without disturbing the cell pellet. The cell viability and yield were determined. The hepatocytes were counted, and the cell suspensions were diluted to the appropriate cell density. The viable cell density was 2×10^6 cells/mL. The hepatocyte solution was placed on ice until it was used.
Two dosing solutions of prewarmed KHB (1% DMSO) were prepared. 200 μM spiking solution was prepared by adding 20 μL of substrates stock solution (10 mM) into 980 μL of DMSO. Two dosing solutions were prepared by adding 10 μL of 200 μM spiking solution into 990 μL of KHB (2 μM after dilution). The dosing solution was centrifuged at 5594 g for 15 min (Thermo Multifuge×3R). 50 μL of pre-warmed 2×dosing solution was added to the wells designated for the different time points. […] After the addition of the hepatocytes, the timer was started. The assay was placed in an incubator at 37° C. 100 μL of ACN containing IS was added to the wells designed for 0 min, the wells were mixed gently, then 50 μL of pre-warmed hepatocytes solution (2×10^6 cells/mL) was added. The wells were sealed. […] Next, the wells were sealed. After quenching, the plates were shaken on a vibrator (IKA, MTS 2/4) for 10 min at 600 rpm. The plate was sonicated for 2 min and centrifuged at 5594 g for 15 min (Thermo Multifuge×3R). 50 μL of the supernatant was transferred from each well into a 96-well sample plate containing 50 μL of ultra pure water (Millipore, ZMQS50F01) for LC/MS analysis.

SD rats = assay: SD rat carrageenan acute inflammation model; type: in vivo; conditions: for Changes in Foot Swelling Rate (Mean ± SEM) / Foot Swelling Degrees (Mean ± SEM): SD rat carrageenan
Protocol: Using an electronic caliper for accuracy, the thickness of the rat's footpad was measured. Rats were then restrained, and 100 μl of 1% carrageenan was subcutaneously injected into the right hind footpad to induce inflammation, thereby establishing an acute inflammation model using carrageenan. Each compound was administered in advance according to the respective dosing time points. The swelling of the rat's foot was measured at various time points: before modeling (0 h) and after modeling (2, 4, 7 h). A comparison was made between footpad swelling before and after modeling. […] The results of the carrageenan-induced acute inflammation model experiment are depicted in FIG. 1.

| SMILES | CLint scaled at 1 μM (Hepatocyte stability) | half-life at 1 μM (Hepatocyte stability) | Changes in Foot Swelling Rate (Mean ± SEM) (SD rats; 0 h (before modeling)) | Foot Swelling Degrees (Mean ± SEM) (SD rats; 0 h (before modeling)) | Changes in Foot Swelling Rate (Mean ± SEM) (SD rats; 2 h after modeling) | Foot Swelling Degrees (Mean ± SEM) (SD rats; 2 h after modeling) | Changes in Foot Swelling Rate (Mean ± SEM) (SD rats; 4 h after modeling) | Foot Swelling Degrees (Mean ± SEM) (SD rats; 4 h after modeling) | Changes in Foot Swelling Rate (Mean ± SEM) (SD rats; 7 h after modeling) | Foot Swelling Degrees (Mean ± SEM) (SD rats; 7 h after modeling) | Anti-inflammatory effect in carrageenan model (SD rats; single subcutaneous injection of 30 mg/kg, SD rats) |
| --- | --- | --- | --- | --- | --- | --- | --- | --- | --- | --- | --- |
| CC(C)(NC(=O)[C@H]1[C@@H]2CNC[C@H]1C2)c1nc(C2CC2)c2ccccn12 [Compound 9, (1R,5S,6r)-N-(2-(1-cyclopropylimidazo[1,5-a]pyridin-3-yl)propan-2-yl)-3-azabicyclo[3.1.1]heptane-6-carboxamide] | 3.17 mL/min/kg | 17.1 h |  |  |  |  |  |  |  |  |  |
| CC(C)(NC(=O)[C@H]1[C@@H]2CNC[C@H]1C2)c1ncc2c(Br)cccn12 [Compound 8, (1R,5S,6r)-N-(2-(8-bromoimidazo[1,5-a]pyridin-3-yl)propan-2-yl)-3-azabicyclo[3.1.1]heptane-6-carboxamide] |  |  | 0% | 4.02 ± 0.09 mm | 36.28 ± 5.75% | 5.51 ± 0.13 mm | 42.25 ± 2.63% | 5.78 ± 0.05 mm | 34.30 ± 4.17% | 5.44 ± 0.11 mm | demonstrated anti-inflammatory tendencies |
